In the assay the target is T1, Human Polθ polymerase domain (aa1820-2590) (Homo sapiens, UniProt O75417).
T1 construct: Human Polθ polymerase domain (aa1820-2590) was expressed in E. coli; made in house; host or cells: E. coli
T1 sequence (O75417 1820-2590): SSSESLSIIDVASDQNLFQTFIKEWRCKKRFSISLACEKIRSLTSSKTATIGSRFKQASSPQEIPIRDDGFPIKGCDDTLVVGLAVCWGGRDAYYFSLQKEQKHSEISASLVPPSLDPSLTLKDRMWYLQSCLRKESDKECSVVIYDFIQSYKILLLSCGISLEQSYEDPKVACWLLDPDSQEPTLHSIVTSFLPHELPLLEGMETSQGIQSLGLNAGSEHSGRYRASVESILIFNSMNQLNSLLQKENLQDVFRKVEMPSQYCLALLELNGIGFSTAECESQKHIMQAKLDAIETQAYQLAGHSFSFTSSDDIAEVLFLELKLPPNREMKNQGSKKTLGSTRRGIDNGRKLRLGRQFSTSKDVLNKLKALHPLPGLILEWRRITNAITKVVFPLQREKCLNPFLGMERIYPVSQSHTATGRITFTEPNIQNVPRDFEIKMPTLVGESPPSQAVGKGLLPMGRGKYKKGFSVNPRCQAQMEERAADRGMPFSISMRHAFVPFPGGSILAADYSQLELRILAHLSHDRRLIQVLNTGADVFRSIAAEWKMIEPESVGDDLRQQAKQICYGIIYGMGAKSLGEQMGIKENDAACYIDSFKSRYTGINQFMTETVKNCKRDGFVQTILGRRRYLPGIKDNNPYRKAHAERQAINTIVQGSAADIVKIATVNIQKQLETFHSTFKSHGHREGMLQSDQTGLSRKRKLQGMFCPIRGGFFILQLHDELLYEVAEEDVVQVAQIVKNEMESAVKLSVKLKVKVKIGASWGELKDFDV
Briefly: Polθ Polymerase Domain Kinact/KI Assay (PicoGreen). Type of assay: biochemical. To be noted: 0.8 nM Polθ, 100 nM DNA substrate, kobs vs [I] fit for 2-step covalent inhibitor. Put shortly:
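Time-dependent inhibition was followed with 0.8 nM polymerase domain, 100 nM DNA substrate and […], reactions quenched over 60 min and quantified by PicoGreen. Kinact and KI came from a secondary plot of kobs against inhibitor concentration.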
Turning to `C=CC(=O)N1CCC[C@@H]1c1nnc(CN2C[C@H]3CC(=O)N(c4cc(C(F)(F)F)cc(C)n4)[C@@H]3C(=O)N(C)c3cccc(C)c32)o1` [Example 272, (3aR,11aS)-5-((5-((R)-1-acryloylpyrrolidin-2-yl)-1,3,4-oxadiazol-2-yl)methyl)-6,10-dimethyl-1-(6-methyl-4-(trifluoromethyl)pyridin-2-yl)-1,3a,4,5,10,11a-hexahydro-2H-benzo[b]pyrrolo[2,3-f][1,4]diazocine-2,11(3H)-dione], the Kinact/Kl came to 33000 M⁻¹ s⁻¹. For `C=CC(=O)N1CCC[C@H]1c1nnc(CN2C[C@H]3CC(=O)N(c4cc(C(F)(F)F)cc(C)n4)[C@@H]3C(=O)N(C)c3cccc(C)c32)o1` [Example 273, (3aR,11aS)-5-((5-((S)-1-acryloylpyrrolidin-2-yl)-1,3,4-oxadiazol-2-yl)methyl)-6,10-dimethyl-1-(6-methyl-4-(trifluoromethyl)pyridin-2-yl)-1,3a,4,5,10,11a-hexahydro-2H-benzo[b]pyrrolo[2,3-f][1,4]diazocine-2,11(3H)-dione] the value was 60000 M⁻¹ s⁻¹; for `C=CC(=O)N1CC[C@@H]1c1nnc(CN2C[C@H]3CC(=O)N(c4cc(C(F)(F)F)cc(C)n4)[C@@H]3C(=O)N(C)c3cccc(C)c32)o1` [Example 274, (3aR,11aS)-5-((5-((R)-1-acryloylazetidin-2-yl)-1,3,4-oxadiazol-2-yl)methyl)-6,10-dimethyl-1-(6-methyl-4-(trifluoromethyl)pyridin-2-yl)-1,3a,4,5,10,11a-hexahydro-2H-benzo[b]pyrrolo[2,3-f][1,4]diazocine-2,11(3H)-dione], 470000 M⁻¹ s⁻¹; for `C=CC(=O)N1CC[C@H]1c1nnc(CN2C[C@H]3CC(=O)N(c4cc(C(F)(F)F)cc(C)n4)[C@@H]3C(=O)N(C)c3cccc(C)c32)o1` [Example 275, (3aR,11aS)-5-((5-((S)-1-acryloylazetidin-2-yl)-1,3,4-oxadiazol-2-yl)methyl)-6,10-dimethyl-1-(6-methyl-4-(trifluoromethyl)pyridin-2-yl)-1,3a,4,5,10,11a-hexahydro-2H-benzo[b]pyrrolo[2,3-f][1,4]diazocine-2,11(3H)-dione], 800000 M⁻¹ s⁻¹.

`C=CC(=O)N1Cc2ccc(CN3C[C@H]4CC(=O)N(c5cc(C(F)(F)F)cc(C)n5)[C@@H]4C(=O)N(C)c4cccc(Cl)c43)nc2C1` [Example 276, (3aR,11aS)-5-((6-acryloyl-6,7-dihydro-5H-pyrrolo[3,4-b]pyridin-2-yl)methyl)-6-chloro-10-methyl-1-(6-methyl-4-(trifluoromethyl)pyridin-2-yl)-1,3a,4,5,10,11a-hexahydro-2H-benzo[b]pyrrolo[2,3-f][1,4]diazocine-2,11(3H)-dione] returned a Kinact/Kl of 1.76e+06 M⁻¹ s⁻¹.

For `C=CC(=O)N1Cc2cnc(CN3C[C@H]4CC(=O)N(c5cc(C(F)(F)F)cc(C)n5)[C@@H]4C(=O)N(C)c4cccc(Cl)c43)cc2C1` [Example 277, (3aR,11aS)-5-((2-acryloyl-2,3-dihydro-1H-pyrrolo[3,4-c]pyridin-6-yl)methyl)-6-chloro-10-methyl-1-(6-methyl-4-(trifluoromethyl)pyridin-2-yl)-1,3a,4,5,10,11a-hexahydro-2H-benzo[b]pyrrolo[2,3-f][1,4]diazocine-2,11(3H)-dione], the Kinact/Kl was 80000 M⁻¹ s⁻¹. For `C=CC(=O)N1Cc2cnc(CN3C[C@H]4CC(=O)N(c5cc(C(F)(F)F)cc(C)n5)[C@@H]4C(=O)N(C)c4cccc(Cl)c43)nc2C1` [Example 278, (3aR,11aS)-5-((6-acryloyl-6,7-dihydro-5H-pyrrolo[3,4-d]pyrimidin-2-yl)methyl)-6-chloro-10-methyl-1-(6-methyl-4-(trifluoromethyl)pyridin-2-yl)-1,3a,4,5,10,11a-hexahydro-2H-benzo[b]pyrrolo[2,3-f][1,4]diazocine-2,11(3H)-dione] the value was 770000 M⁻¹ s⁻¹; for `C=CC(=O)N1Cc2nc(CN3C[C@H]4CC(=O)N(c5cc(C(F)(F)F)cc(C)n5)[C@@H]4C(=O)N(C)c4cccc(Cl)c43)n(CC)c2C1` [Example 279, (3aR,11aS)-5-((5-acryloyl-1-ethyl-1,4,5,6-tetrahydropyrrolo[3,4-d]imidazol-2-yl)methyl)-6-chloro-10-methyl-1-(6-methyl-4-(trifluoromethyl)pyridin-2-yl)-1,3a,4,5,10,11a-hexahydro-2H-benzo[b]pyrrolo[2,3-f][1,4]diazocine-2,11(3H)-dione], 900000 M⁻¹ s⁻¹. For `C=CC(=O)N1Cc2nc(CN3C[C@H]4CC(=O)N(c5cc(C(F)(F)F)cc(C)n5)[C@@H]4C(=O)N(C)c4cccc(Cl)c43)sc2C1` [Example 280, (3aR,11aS)-5-((5-acryloyl-5,6-dihydro-4H-pyrrolo[3,4-d]thiazol-2-yl)methyl)-6-chloro-10-methyl-1-(6-methyl-4-(trifluoromethyl)pyridin-2-yl)-1,3a,4,5,10,11a-hexahydro-2H-benzo[b]pyrrolo[2,3-f][1,4]diazocine-2,11(3H)-dione] the value was 2.54e+06 M⁻¹ s⁻¹; for `C=CC(=O)N1CCOc2cc(CN3C[C@H]4CC(=O)N(c5cc(C(F)(F)F)cc(C)n5)[C@@H]4C(=O)N(C)c4cccc(Cl)c43)ccc21` [Example 281, (3aR,11aS)-5-((4-acryloyl-3,4-dihydro-2H-benzo[b][1,4]oxazin-7-yl)methyl)-6-chloro-10-methyl-1-(6-methyl-4-(trifluoromethyl)pyridin-2-yl)-1,3a,4,5,10,11a-hexahydro-2H-benzo[b]pyrrolo[2,3-f][1,4]diazocine-2,11(3H)-dione], 1.05e+06 M⁻¹ s⁻¹; for `C=CC(=O)Nc1ccc(CN2C[C@H]3CC(=O)N(c4cc(C(F)(F)F)cc(C)n4)[C@@H]3C(=O)N(C)c3cccc(Cl)c32)cn1` [Example 282, N-(5-(((3aR,11aS)-6-chloro-10-methyl-1-(6-methyl-4-(trifluoromethyl)pyridin-2-yl)-2,11-dioxo-1,2,3,3a,4,10,11,11a-octahydro-5H-benzo[b]pyrrolo[2,3-f][1,4]diazocin-5-yl)methyl)pyridin-2-yl)acrylamide], 870000 M⁻¹ s⁻¹. For `C=CC(=O)Nc1ccc(CN2C[C@H]3CC(=O)N(c4cc(C(F)(F)F)cc(C)n4)[C@@H]3C(=O)N(C)c3cccc(Cl)c32)nc1` [Example 283, N-(6-(((3aR,11aS)-6-chloro-10-methyl-1-(6-methyl-4-(trifluoromethyl)pyridin-2-yl)-2,11-dioxo-1,2,3,3a,4,10,11,11a-octahydro-5H-benzo[b]pyrrolo[2,3-f][1,4]diazocin-5-yl)methyl)pyridin-3-yl)acrylamide] the value was 950000 M⁻¹ s⁻¹; for `C=CC(=O)Nc1cnc(CN2C[C@H]3CC(=O)N(c4cc(C(F)(F)F)cc(C)n4)[C@@H]3C(=O)N(C)c3cccc(Cl)c32)nc1` [Example 284, N-(2-(((3aR,11aS)-6-chloro-10-methyl-1-(6-methyl-4-(trifluoromethyl)pyridin-2-yl)-2,11-dioxo-1,2,3,3a,4,10,11,11a-octahydro-5H-benzo[b]pyrrolo[2,3-f][1,4]diazocin-5-yl)methyl)pyrimidin-5-yl)acrylamide], 770000 M⁻¹ s⁻¹.

The values above are taken from patent publication US20250230165A1, “HETEROCYCLIC COMPOUNDS FOR USE IN THE TREATMENT OF CANCER” (ARTIOS PHARMA LIMITED, priority 2021, published 2025).
